# Where “and” joins values, the source holds several entries; their conditions need not be identical. Equal entries are not always repeated. Where two headings read alike, the source gives them in different places.
# Assays:
# [1] = test system: HDAC 1, 3, 5, 6, 7, 8, 10, 11, and sirt1-2; assay: HDAC activity assays, summary over the panel; type: biochemical; details: HDAC 1, 3, 5, 6, 7, 8, 10, 11, sirt1-2
# Procedure: Assay Conditions. A series of dilution of the test compounds were prepared with 10% DMSO in assay buffer and 5 μl of the dilution was added to a 50 μl reaction so that the final concentration of DMSO is 1% in all of reactions. All of the enzymatic reactions were conducted in duplicate at 37° C. for 30 minutes except of HDAC11 at room temperature for 3 hours. The 50 μl reaction mixture contains HDAC assay buffer, 5 μg BSA, an HDAC substrate, an HDAC enzyme and a test compound. After enzymatic reactions, 50 μl of HDAC Developer was added to each well and the plate was incubated at room temperature for an additional 20 minutes. Fluorescence intensity was measured at an excitation of 360 nm and an emission of 460 nm using a Tecan Infinite M1000 microplate reader.
# Data Analysis. HDAC activity assays were performed in duplicates at each concentration. The fluorescent intensity data were analyzed using the computer software, Graphpad Prism. In the absence of the compound, the fluorescent intensity (Ft) in each data set was defined as 100% activity. In the absence of HDAC, the fluorescent intensity (Fb) in each data set was defined as 0% activity. […] The percent activity in the presence of each compound was calculated according to the following equation: % activity=(F−Fb)/(Ft−Fb), where F=the fluorescent intensity in the presence of the compound. […]
# [2] = target: human p300 (Homo sapiens, UniProt Q09472); assay: p300 activation, in vitro assay; type: biochemical
# human p300, sequence (Q09472 whole entry): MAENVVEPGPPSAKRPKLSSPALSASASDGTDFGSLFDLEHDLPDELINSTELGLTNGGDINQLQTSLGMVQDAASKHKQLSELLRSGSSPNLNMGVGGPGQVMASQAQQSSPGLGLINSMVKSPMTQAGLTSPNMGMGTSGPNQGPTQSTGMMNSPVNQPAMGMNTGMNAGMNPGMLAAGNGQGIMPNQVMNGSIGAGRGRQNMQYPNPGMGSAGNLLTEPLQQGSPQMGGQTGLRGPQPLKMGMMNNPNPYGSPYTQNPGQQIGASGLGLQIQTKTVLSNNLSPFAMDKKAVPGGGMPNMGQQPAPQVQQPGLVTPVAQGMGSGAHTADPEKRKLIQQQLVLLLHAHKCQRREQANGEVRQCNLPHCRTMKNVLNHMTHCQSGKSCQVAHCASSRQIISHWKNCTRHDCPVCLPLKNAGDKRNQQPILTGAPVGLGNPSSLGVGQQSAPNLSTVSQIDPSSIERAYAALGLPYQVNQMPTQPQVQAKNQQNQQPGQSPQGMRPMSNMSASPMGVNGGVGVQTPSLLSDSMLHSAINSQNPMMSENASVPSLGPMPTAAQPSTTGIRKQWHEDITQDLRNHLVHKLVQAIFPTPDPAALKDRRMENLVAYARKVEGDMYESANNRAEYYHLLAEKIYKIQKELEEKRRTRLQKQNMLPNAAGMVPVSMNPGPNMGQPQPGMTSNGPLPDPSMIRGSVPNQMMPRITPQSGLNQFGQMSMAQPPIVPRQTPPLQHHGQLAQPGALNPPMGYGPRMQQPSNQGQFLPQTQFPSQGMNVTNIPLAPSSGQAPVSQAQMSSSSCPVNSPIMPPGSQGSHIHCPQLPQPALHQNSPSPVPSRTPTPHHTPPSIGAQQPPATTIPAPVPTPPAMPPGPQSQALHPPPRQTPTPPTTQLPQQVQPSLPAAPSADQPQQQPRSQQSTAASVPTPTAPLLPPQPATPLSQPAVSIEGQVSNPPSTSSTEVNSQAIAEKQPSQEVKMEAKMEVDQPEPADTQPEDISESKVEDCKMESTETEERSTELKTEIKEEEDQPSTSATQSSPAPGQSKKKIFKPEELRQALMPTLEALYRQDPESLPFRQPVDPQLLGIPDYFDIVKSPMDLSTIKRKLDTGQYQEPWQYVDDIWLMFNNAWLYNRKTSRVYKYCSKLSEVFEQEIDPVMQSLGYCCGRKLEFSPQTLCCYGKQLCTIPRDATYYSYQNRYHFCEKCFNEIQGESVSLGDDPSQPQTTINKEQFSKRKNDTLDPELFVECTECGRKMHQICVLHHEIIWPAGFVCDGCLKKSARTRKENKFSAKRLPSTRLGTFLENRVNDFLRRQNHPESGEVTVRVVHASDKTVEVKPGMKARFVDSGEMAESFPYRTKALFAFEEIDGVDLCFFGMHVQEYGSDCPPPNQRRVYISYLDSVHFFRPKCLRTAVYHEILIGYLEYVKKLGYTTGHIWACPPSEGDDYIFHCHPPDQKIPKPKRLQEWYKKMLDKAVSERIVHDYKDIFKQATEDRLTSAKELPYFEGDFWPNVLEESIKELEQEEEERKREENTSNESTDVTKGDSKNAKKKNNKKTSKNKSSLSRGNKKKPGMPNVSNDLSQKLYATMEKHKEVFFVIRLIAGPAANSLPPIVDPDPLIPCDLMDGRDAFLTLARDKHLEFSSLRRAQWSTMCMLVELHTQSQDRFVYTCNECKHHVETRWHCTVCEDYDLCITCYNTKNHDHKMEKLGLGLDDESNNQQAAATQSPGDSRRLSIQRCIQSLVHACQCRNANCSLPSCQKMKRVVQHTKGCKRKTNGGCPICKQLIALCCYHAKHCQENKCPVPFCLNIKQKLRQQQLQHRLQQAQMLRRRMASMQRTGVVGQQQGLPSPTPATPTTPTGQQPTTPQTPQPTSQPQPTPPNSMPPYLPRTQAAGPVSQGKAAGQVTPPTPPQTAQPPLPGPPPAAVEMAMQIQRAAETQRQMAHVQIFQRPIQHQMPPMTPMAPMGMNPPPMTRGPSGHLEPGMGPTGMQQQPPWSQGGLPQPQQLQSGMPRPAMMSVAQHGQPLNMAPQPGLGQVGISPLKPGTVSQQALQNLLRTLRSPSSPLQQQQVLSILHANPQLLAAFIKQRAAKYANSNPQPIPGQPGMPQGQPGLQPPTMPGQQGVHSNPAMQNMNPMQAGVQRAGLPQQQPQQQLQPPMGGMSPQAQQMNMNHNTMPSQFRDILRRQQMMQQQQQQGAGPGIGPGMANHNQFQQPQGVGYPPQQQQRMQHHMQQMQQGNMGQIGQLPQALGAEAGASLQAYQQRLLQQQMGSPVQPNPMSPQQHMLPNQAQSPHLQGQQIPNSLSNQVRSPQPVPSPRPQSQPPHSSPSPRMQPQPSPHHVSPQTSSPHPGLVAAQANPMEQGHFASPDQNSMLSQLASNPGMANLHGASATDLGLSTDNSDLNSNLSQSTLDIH
# [3] = target: human GCN5 (Homo sapiens, UniProt Q92830); assay: GCN5 activation, in vitro assay; type: biochemical
# human GCN5, sequence (Q92830 whole entry): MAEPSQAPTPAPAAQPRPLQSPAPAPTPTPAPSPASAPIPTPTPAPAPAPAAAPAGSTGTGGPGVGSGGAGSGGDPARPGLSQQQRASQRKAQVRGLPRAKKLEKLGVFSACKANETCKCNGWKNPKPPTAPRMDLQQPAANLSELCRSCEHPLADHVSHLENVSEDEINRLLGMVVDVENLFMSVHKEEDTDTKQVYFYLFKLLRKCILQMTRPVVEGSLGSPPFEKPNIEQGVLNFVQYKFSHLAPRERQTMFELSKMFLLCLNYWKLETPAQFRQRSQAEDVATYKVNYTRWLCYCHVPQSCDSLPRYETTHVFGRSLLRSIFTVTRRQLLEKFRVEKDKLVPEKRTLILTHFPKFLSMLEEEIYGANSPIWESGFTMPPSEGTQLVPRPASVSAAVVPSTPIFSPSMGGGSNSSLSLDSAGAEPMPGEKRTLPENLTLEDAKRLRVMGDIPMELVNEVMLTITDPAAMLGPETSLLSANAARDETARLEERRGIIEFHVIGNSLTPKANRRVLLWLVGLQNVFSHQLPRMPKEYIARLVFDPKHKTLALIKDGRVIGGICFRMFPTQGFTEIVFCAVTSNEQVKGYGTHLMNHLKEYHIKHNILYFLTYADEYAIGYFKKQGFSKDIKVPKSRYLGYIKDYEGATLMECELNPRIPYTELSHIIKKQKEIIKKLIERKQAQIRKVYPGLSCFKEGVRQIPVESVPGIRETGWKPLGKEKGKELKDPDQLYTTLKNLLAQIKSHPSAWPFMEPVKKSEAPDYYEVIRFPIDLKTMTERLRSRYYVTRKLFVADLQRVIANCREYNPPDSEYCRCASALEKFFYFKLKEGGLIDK
# [4] = Oral pharmacokinetics; type: in vivo; details: for Kp: brain/plasma
# [5] = Acute toxicity experiments; type: in vivo; details: i.p.
# [6] = Chronic administration, adverse effects; type: in vivo; details: 45 days, i.p., daily, 20 mg/kg
# [7] = test system: mice; assay: Sensory threshold assessment; type: in vivo; details: vs vehicle, 5 mg/kg (FIG. 19)
# Procedure: To evaluate contextual fear learning, freezing was measured for 5 min (consecutively) in the chamber in which the mice was trained 24 hr after training. To evaluate cued fear learning, following contextual testing, the mice were placed in a novel context (triangular cage with smooth flat floor) for 2 min (pre-CS test), after which they were exposed to the CS for 3 min (CS test), and freezing was measured. Sensory perception of the shock was determined through threshold assessment. A sequence of single foot shocks was delivered to animals placed on the same electrified grid used for fear conditioning. Initially, a […] shock was delivered for 1 sec, and the animal behavior was evaluated for flinching, jumping, and vocalization. At 30 sec intervals the shock intensity was increased by […] and then returned to 0 mV in […] increments at 30 sec intervals. Threshold to vocalization, flinching, and then jumping was quantified for each animal by averaging the shock intensity at which each animal manifests a behavioral response to the foot shock.
# [8] = test system: mouse model of Alzheimer's disease; assay: Memory deficits in a mouse model of Alzheimer's disease; type: in vivo
# [9] = target: T1, HDAC10 (Homo sapiens, UniProt Q969S8); assay: HDAC10 activity assay (fluorescence); details: Compound 1 Log [nM] 4.5; Repeat1/Repeat2
# T1 sequence (Q969S8 1-669): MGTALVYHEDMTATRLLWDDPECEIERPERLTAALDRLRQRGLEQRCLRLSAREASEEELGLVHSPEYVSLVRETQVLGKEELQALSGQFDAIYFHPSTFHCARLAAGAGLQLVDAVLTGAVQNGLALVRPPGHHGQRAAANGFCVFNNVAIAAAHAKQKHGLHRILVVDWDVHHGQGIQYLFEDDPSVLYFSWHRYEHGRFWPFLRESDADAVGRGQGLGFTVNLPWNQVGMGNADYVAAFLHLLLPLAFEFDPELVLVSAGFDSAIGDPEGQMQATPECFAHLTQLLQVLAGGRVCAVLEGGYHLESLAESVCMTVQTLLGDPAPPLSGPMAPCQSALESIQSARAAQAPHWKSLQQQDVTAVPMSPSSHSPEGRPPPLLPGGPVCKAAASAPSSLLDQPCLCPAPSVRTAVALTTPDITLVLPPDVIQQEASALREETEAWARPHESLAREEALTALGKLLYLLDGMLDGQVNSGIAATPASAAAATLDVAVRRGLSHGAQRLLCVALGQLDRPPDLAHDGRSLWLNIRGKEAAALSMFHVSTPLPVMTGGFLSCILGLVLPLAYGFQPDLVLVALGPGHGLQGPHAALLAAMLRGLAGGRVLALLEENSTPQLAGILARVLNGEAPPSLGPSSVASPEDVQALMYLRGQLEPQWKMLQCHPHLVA
# [10] = target: HDAC3/NCOR2 (Homo sapiens, UniProt O15379); assay: HDAC3/NCOR2 activity assay (fluorescence); details: Repeat1/Repeat2
# HDAC3/NCOR2, sequence (O15379 whole entry): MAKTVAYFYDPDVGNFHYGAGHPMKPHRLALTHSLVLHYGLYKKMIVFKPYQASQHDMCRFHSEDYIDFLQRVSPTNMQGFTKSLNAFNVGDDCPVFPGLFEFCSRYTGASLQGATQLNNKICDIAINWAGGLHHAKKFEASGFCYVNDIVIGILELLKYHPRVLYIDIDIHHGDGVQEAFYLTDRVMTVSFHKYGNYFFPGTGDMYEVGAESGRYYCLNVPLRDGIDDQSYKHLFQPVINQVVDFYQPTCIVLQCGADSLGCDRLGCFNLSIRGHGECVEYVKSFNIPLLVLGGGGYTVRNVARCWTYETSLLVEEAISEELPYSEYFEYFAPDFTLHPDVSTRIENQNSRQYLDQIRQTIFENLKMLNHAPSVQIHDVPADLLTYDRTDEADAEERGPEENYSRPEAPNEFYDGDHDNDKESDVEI
# HDAC3/NCOR2, sequence (Q9Y618 395-489 partner limits assumed): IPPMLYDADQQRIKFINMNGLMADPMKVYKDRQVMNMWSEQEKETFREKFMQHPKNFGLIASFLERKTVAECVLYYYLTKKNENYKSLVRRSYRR
smiles,measurement,setting,value
CCOc1cccc(OCCN(C)C)c1C(=O)Nc1ccc(Cl)c(C(F)(F)F)c1 [Compound 1],HDAC inhibition (in words),[1],does not inhibit HDACs
same,HDAC inhibition (in words),[1]; listed as compound 1,did not interfere with p300 and HDAC activity
same,effect on p300 activity,[2],increases p300 activity
same,EC50,[2]; FIG. 16,0.79 µM
same,effect on p300 activity,[2]; listed as compound 1,did not interfere with p300
same,EC50,[3],49.3 µM and 65.2 µM
same,Kp,"[4]; po, read-out: AUC0-t ratio brain/plasma",6.6
same,Kp,"[4]; po, read-out: AUC0-∞ ratio brain/plasma",6.5
same,Kp,"[4]; po, read-out: Cmax ratio brain/plasma",5.7
same,amount in the brain compared with plasma,"[4]; dosed orally, FIG. 17",higher than that in the plasma
same,AUC0-t,"[4]; oral, brain",2149 ng·h/g
same,AUC0-∞,"[4]; oral, brain",2159 ng·h/g
same,Cmax,"[4]; oral, brain",1010 ng/g
same,MRT,"[4]; oral, brain",1.68 h
same,Tmax,"[4]; oral, brain",1 h
same,half-life,"[4]; oral, brain, read-out: t1/2 (converted)",0.99 h
same,AUC(0-inf),"[4]; oral, plasma",330 ng·h/mL
same,Cmax,"[4]; oral, plasma",177 ng/mL
same,MRT,"[4]; oral, plasma",1.5 h
same,Tmax,"[4]; oral, plasma",0.5 h
same,AUC0-t,"[4]; oral, plasma, read-out: AUC0-t",328 ng·h/mL
same,half-life,"[4]; oral, plasma, read-out: t1/2 (converted)",1.06 h
same,half-life,"[4]; po, brain and plasma, read-out: elimination half-lives in the brain and plasma",~1 h
same,"dose without any adverse effects, acute toxicity",[5],up to 300 mg/kg
same,adverse effects on chronic administration,[6],did not have adverse effects
same,sensory threshold,[7],no difference was observed
same,memory deficits,[8],ameliorate memory deficits
same,% Activity (HDAC10),[9],102.89%
same,% Activity (HDAC3/NCOR2),[10]; Compound 1 Log [nM] 0.5,102.35% and 89.76%
same,% Activity (HDAC3/NCOR2),[10]; Compound 1 Log [nM] 1.0,98.01% and 97.56%
same,% Activity (HDAC3/NCOR2),[10]; Compound 1 Log [nM] 1.5,101.44% and 96.12%
same,% Activity (HDAC3/NCOR2),[10]; Compound 1 Log [nM] 2.0,102.25% and 94.61%
same,% Activity (HDAC3/NCOR2),[10]; Compound 1 Log [nM] 2.5,101.07% and 95.51%
same,% Activity (HDAC3/NCOR2),[10]; Compound 1 Log [nM] 3.0,99.62% and 94.38%
same,% Activity (HDAC3/NCOR2),[10]; Compound 1 Log [nM] 3.5,97.14% and 94.27%
same,% Activity (HDAC3/NCOR2),[10]; Compound 1 Log [nM] 4.0,108.31% and 94.90%
same,% Activity (HDAC3/NCOR2),[10]; Compound 1 Log [nM] 4.5,87.66% and 88.97%
same,% Activity (HDAC3/NCOR2),[10]; Compound 1 Log [nM] 5.3,89.40% and 102.23%
